From patent publication US8952024B2, “Herbicidal pyrimidone derivatives” (E I du Pont de Nemours and Company, priority 2009, dated 2015)

What was measured:
Assay type in all cases: in vivo
[1] = system: goosegrass (Eleusine indica); test: Test B pre-/postemergence plant response
In short: (§1)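 Visual injury, 0–100 scale (100 = complete control), rated against controls after 13 to 15 days in greenhouse. Pre-emergence: seeds in loam/sand soil, treated at planting. Post-emergence: 1- to 4-leaf plants (2 to 18 cm) in peat/vermiculite medium. Compounds formulated in non-phytotoxic solvent with surfactant.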

[2] = system: wheat (Triticum aestivum); test: Test B pre-/postemergence plant response
In short: as §1

[3] = system: lambsquarters (Chenopodium album); test: Test B pre-/postemergence plant response
In short: as §1

[4] = system: morningglory (Ipomoea coccinea); test: Test B pre-/postemergence plant response
In short: as §1

wild oat (Avena fatua) = test: Test B pre-/postemergence plant response
In short: as §1

[5] = system: large crabgrass (Digitaria sanguinalis); test: Test B pre-/postemergence plant response
In short: as §1

[6] = system: green foxtail (Setaria viridis); test: Test B pre-/postemergence plant response
In short: as §1

[7] = system: bermudagrass (Cynodon dactylon); test: Test B pre-/postemergence plant response
In short: as §1

[8] = system: cocklebur (Xanthium strumarium); test: Test B pre-/postemergence plant response
In short: as §1

[9] = system: yellow nutsedge (Cyperus esculentus); test: Test B pre-/postemergence plant response
In short: as §1

[10] = system: umbrella sedge (Cyperus difformis); test: Test B flooded paddy test; conditions: for Plant response rating, Flood, Sedge, Umbrella: 250 g ai/ha, flooded paddy test, visual rating on 0 to 100 scale (0 no effect, 100 complete control) after 13 to 15 days; for Plant response rating, Sedge, Umbrella: Flood (flooded paddy test), 13 to 15 days; for Sedge, Umbrella plant response rating: Flood, 31 g ai/ha, scale 0 to 100 (0 no effect, 100 complete control)
In short: (§2)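 Post-flood paddy application: compounds are introduced into water 3 cm deep over the soil, reaching plants at the 2-leaf stage. The water level is maintained, and after 13–15 days under greenhouse conditions, response is judged by eye relative to controls, where 100 means complete control.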

[11] = system: barnyardgrass (Echinochloa crus-galli); test: Test B flooded paddy test; conditions: for Plant response rating, Flood, Barnyardgrass: 250 g ai/ha, flooded paddy test, visual rating on 0 to 100 scale (0 no effect, 100 complete control) after 13 to 15 days; for Plant response rating, Barnyardgrass: Flood (flooded paddy test), 13 to 15 days; for Barnyardgrass plant response rating: Flood, 31 g ai/ha, scale 0 to 100 (0 no effect, 100 complete control)
In short: as §2

[12] = Postemergence, 31 g ai/ha, 0 to 100 scale (0 no effect, 100 complete control)
[13] = Postemergence, 62 g ai/ha, scale 0 to 100 (0 no effect, 100 complete control)
[14] = Postemergence, 125 g ai/ha, scale 0 (no effect) to 100 (complete control), 13 to 15 days
[15] = Postemergence, 250 g ai/ha, scale 0 to 100 (0 no effect, 100 complete control), 13 to 15 days
[16] = Preemergence, 31 g ai/ha, scale 0 to 100 (0 no effect, 100 complete control)
[17] = Preemergence, 62 g ai/ha, scale 0 to 100 (0 no effect, 100 complete control)
[18] = Preemergence, 125 g ai/ha, scale 0 to 100, 0 no effect, 100 complete control
[19] = Preemergence, 250 g ai/ha, 0 to 100 scale
[20] = 62 g ai/ha, scale of 0 to 100 where 0 is no effect and 100 is complete control
[21] = 125 g ai/ha, scale 0 to 100, 0 is no effect, 100 is complete control

CCCCn1c(-c2cc(F)cc(F)c2)ncc(C(=O)C2=C(O)C3CCC(C3)C2=O)c1=O (centres unmarked) [Compound 245]
90: Plant response rating, Morningglory [4, 12]
95: Plant response rating, Goosegrass [1, 16] | Plant response rating, Wheat [2, 13] | Plant response rating, Wheat [2, 14]
85: Plant response rating, Oat, Wild (wild oat (Avena fatua); [13]) | Plant response rating, Oat, Wild (wild oat (Avena fatua); [14]) | Plant response rating, Foxtail, Green [6, 12]
15: Wheat plant response rating [2, 19]
60: Plant response rating, Crabgrass, Large [5, 16] | Sedge, Umbrella plant response rating [10]
0: Plant response rating, Wheat [2, 16] | Plant response rating, Wheat [2, 17] | Plant response rating, Morningglory [4, 16] | Plant response rating, Morningglory [4, 17] | Plant response rating, Oat, Wild (wild oat (Avena fatua); [16]) | Plant response rating, Oat, Wild (wild oat (Avena fatua); [17]) | Plant response rating, Foxtail, Green [6, 16] | Plant response rating, Foxtail, Green [6, 17] | Plant response rating, Cocklebur [8, 16] | Plant response rating, Cocklebur [8, 17] | Plant response rating, Nutsedge, Yellow [9, 16] | Plant response rating, Nutsedge, Yellow [9, 17] | Plant response rating, Barnyardgrass [11, 20] | Barnyardgrass plant response rating [11]
30: Plant response rating, Oat, Wild (wild oat (Avena fatua); [18]) | Oat, Wild plant response rating (wild oat (Avena fatua); [19])
45: Plant response rating, Nutsedge, Yellow [9, 13]
40: Plant response rating, Nutsedge, Yellow [9, 12] | Plant response rating, Barnyardgrass [11, 21]
5: Plant response rating, Wheat [2, 18]
80: Plant response rating, Crabgrass, Large [5, 12] | Plant response rating, Bermudagrass [7, 12] | Nutsedge, Yellow plant response rating [9, 19]
100: Plant response rating, Goosegrass [1, 14] | Plant response rating, Goosegrass [1, 15] | Plant response rating, Goosegrass [1, 17] | Plant response rating, Goosegrass [1, 18] | Goosegrass plant response rating [1, 19] | Plant response rating, Lambsquarters [3, 13] | Plant response rating, Lambsquarters [3, 14] | Plant response rating, Lambsquarters [3, 15] | Plant response rating, Lambsquarters [3, 16] | Plant response rating, Lambsquarters [3, 17] | Plant response rating, Lambsquarters [3, 18] | Lambsquarters plant response rating [3, 19] | Plant response rating, Morningglory [4, 13] | Plant response rating, Morningglory [4, 14] | Plant response rating, Morningglory [4, 15] | Morningglory plant response rating [4, 19] | Plant response rating, Oat, Wild (wild oat (Avena fatua); [15]) | Plant response rating, Crabgrass, Large [5, 13] | Plant response rating, Crabgrass, Large [5, 14] | Plant response rating, Crabgrass, Large [5, 15] | Plant response rating, Crabgrass, Large [5, 17] | Plant response rating, Crabgrass, Large [5, 18] | Crabgrass, Large plant response rating [5, 19] | Plant response rating, Foxtail, Green [6, 14] | Plant response rating, Foxtail, Green [6, 15] | Foxtail, Green plant response rating [6, 19] | Plant response rating, Bermudagrass [7, 13] | Plant response rating, Bermudagrass [7, 14] | Plant response rating, Bermudagrass [7, 15] | Plant response rating, Bermudagrass [7, 17] | Plant response rating, Bermudagrass [7, 18] | Bermudagrass plant response rating ([7]; Preemergence, 250 g ai/ha, 0 to 100 scale, 0 no effect, 100 complete control) | Cocklebur plant response rating [8, 19] | Plant response rating, Flood, Sedge, Umbrella [10] | Plant response rating, Sedge, Umbrella [10, 20] | Plant response rating, Sedge, Umbrella [10, 21]
70: Plant response rating, Oat, Wild (wild oat (Avena fatua); [12]) | Plant response rating, Nutsedge, Yellow [9, 14]
98: Plant response rating, Goosegrass [1, 12] | Plant response rating, Goosegrass [1, 13] | Plant response rating, Wheat [2, 15] | Plant response rating, Lambsquarters [3, 12] | Plant response rating, Foxtail, Green [6, 13] | Plant response rating, Bermudagrass [7, 16] | Plant response rating, Cocklebur [8, 18]
75: Plant response rating, Wheat [2, 12] | Plant response rating, Foxtail, Green [6, 18] | Plant response rating, Nutsedge, Yellow [9, 15]
65: Plant response rating, Morningglory [4, 18] | Plant response rating, Nutsedge, Yellow [9, 18] | Plant response rating, Flood, Barnyardgrass [11]

CCn1c(-c2ccccc2)ncc(C(=O)C2=C(O)C3CCC(C3)C2=O)c1=O (centres unmarked) [Compound 239]
80: Plant response rating, Goosegrass [1, 12] | Plant response rating, Foxtail, Green [6, 12]
75: Plant response rating, Crabgrass, Large [5, 12] | Plant response rating, Flood, Sedge, Umbrella [10]
0: Plant response rating, Wheat [2, 12] | Plant response rating, Wheat [2, 13] | Plant response rating, Oat, Wild (wild oat (Avena fatua); [12]) | Plant response rating, Sedge, Umbrella [10, 20] | Sedge, Umbrella plant response rating [10] | Plant response rating, Barnyardgrass [11, 20] | Plant response rating, Barnyardgrass [11, 21] | Barnyardgrass plant response rating [11]
5: Plant response rating, Wheat [2, 14] | Plant response rating, Oat, Wild (wild oat (Avena fatua); [13]) | Plant response rating, Oat, Wild (wild oat (Avena fatua); [14])
90: Plant response rating, Crabgrass, Large [5, 13] | Plant response rating, Foxtail, Green [6, 14] | Plant response rating, Cocklebur [8, 12]
85: Plant response rating, Foxtail, Green [6, 13]
95: Plant response rating, Morningglory [4, 12] | Plant response rating, Crabgrass, Large [5, 14] | Plant response rating, Foxtail, Green [6, 15] | Plant response rating, Bermudagrass [7, 12]
100: Plant response rating, Goosegrass [1, 15] | Plant response rating, Lambsquarters [3, 14] | Plant response rating, Lambsquarters [3, 15] | Plant response rating, Morningglory [4, 14] | Plant response rating, Morningglory [4, 15] | Plant response rating, Bermudagrass [7, 13] | Plant response rating, Bermudagrass [7, 14] | Plant response rating, Bermudagrass [7, 15] | Plant response rating, Cocklebur [8, 13] | Plant response rating, Cocklebur [8, 14] | Plant response rating, Cocklebur [8, 15]
40: Plant response rating, Sedge, Umbrella [10, 21]
98: Plant response rating, Goosegrass [1, 13] | Plant response rating, Goosegrass [1, 14] | Plant response rating, Lambsquarters [3, 12] | Plant response rating, Lambsquarters [3, 13] | Plant response rating, Crabgrass, Large [5, 15]
65: Plant response rating, Nutsedge, Yellow [9, 14]
15: Plant response rating, Flood, Barnyardgrass [11]
70: Plant response rating, Nutsedge, Yellow [9, 15]
30: Plant response rating, Wheat [2, 15] | Plant response rating, Oat, Wild (wild oat (Avena fatua); [15]) | Plant response rating, Nutsedge, Yellow [9, 12] | Plant response rating, Nutsedge, Yellow [9, 13]
